Values after ≈ are worked out from the molar mass of the structure shown.
Tests used:
Type in all cases: cell-based
HIV-1(IIIB) (WT) = assay: microbe, parasite or virus in culture
Description: (§1) CEM cells were suspended at 250,000 cells per ml of culture medium and infected with wild-type HIV-I(IIIB) or mutant HIV-1 strains at 100 50% cell culture infective doses per ml. Then 100 μl of the infected cell suspensions was added to 200-μl microtiter plate wells containing 100 μl of an appropriate dilution of the test compounds. After 4 days incubation at 37° C., the cell cultures were examined for syncytium formation.

HIV-1/B 101Glu = assay: Sensitivity of mutant HIV-1 strain in CEM cell cultures; settings: Table 5
Description: as §1

HIV-1/I(0.1) 103-Asn = assay: as above; settings: Table 5
Description: as §1

HIV-1/II(0.1) 100-Ile = assay: as above; settings: Table 5
Description: as §1

HIV-1/III(0.1) 103-Asn = assay: as above; settings: Table 5
Description: as §1

HIV-1/IV(0.1) 103-Thr = assay: as above; settings: Table 5
Description: as §1

[1] = tested on: HIV-1/V(0.1) 101-Ile + 141-Glu; assay: as above; settings: Table 5
Description: as §1

HIV-1/V(0.5) 103-Asn = assay: as above; settings: Table 5
Description: as §1

HIV-1 = assay: Breakthrough of mutant HIV-1 strains in CEM cell cultures, single drugs and double/triple combinations
Description: The culture medium consisted of RPMI 1640 containing 10% fetal bovine serum, 2 mM L-glutamine, and 0.075% NaHCO3. The multiplicity of the initial infection was ~1000 times the CCID50 (50% cell culture infective dose). Passages were performed every 3 to 4 days by adding 0.5 to 1.0 ml of the infected culture supernatant to 5 ml of a suspension containing 4×10^5 uninfected CEM cells per ml. Syncytium formation was used as a parameter of virus breakthrough in the cell cultures. In the drug combination experiments, the compounds were combined at the same initial concentrations as used for the two lowest concentrations in the single-drug experiments.
Compound IV, BHAP and TSAO-m^3 T were added to HIV-1-infected CEM cell cultures at 0.04, 0.10 and 0.25 ug/ml (Compound IV and BHAP) or 1.0, 2.5 and 5.0 μg/ml (TSAO-m^3 T). In addition, various double- and triple-drug combinations of Compound IV, BHAP and TSAO-m^3 T were performed, combining these inhibitors at their lowest (0.04 μg/ml) or intermediary (0.1 μg/ml) concentration as used in the single-drug experiments.

CC(C)Nc1cccnc1N1CCN(C(=O)c2cc3cc(NS(C)(=O)=O)ccc3[nH]2)CC1 [BHAP U90152]
EC50 (HIV-1(IIIB) (WT)): 0.010 µg/mL (≈ 0.0219 µM) | EC50 (HIV-1/B 101Glu): 1.0 µg/mL (≈ 2.19 µM) | EC50 (HIV-1/I(0.1) 103-Asn): 0.25 µg/mL (≈ 0.548 µM) | EC50 (HIV-1/II(0.1) 100-Ile): 0.67 µg/mL (≈ 1.47 µM) | EC50 (HIV-1/III(0.1) 103-Asn): 0.05 µg/mL (≈ 0.11 µM) | EC50 (HIV-1/IV(0.1) 103-Thr): 0.47 µg/mL (≈ 1.03 µM) | EC50 [1]: 0.10 µg/mL (≈ 0.219 µM) | EC50 (HIV-1/V(0.5) 103-Asn): 0.50 µg/mL (≈ 1.1 µM) | HIV-1-induced syncytium formation in CEM cells (HIV-1; single drug 0.04 μg/ml, day 4 post infection): 0 percentage of control | HIV-1-induced syncytium formation in CEM cells (HIV-1; single drug 0.04 μg/ml, day 7 post infection): 12.5 percentage of control | HIV-1-induced syncytium formation in CEM cells (HIV-1; single drug 0.04 μg/ml, day 11 post infection): 75 percentage of control | HIV-1-induced syncytium formation in CEM cells (HIV-1; single drug 0.04 μg/ml, day 14 post infection): 100 percentage of control | HIV-1-induced syncytium formation in CEM cells (HIV-1; single drug 0.04 μg/ml, day 18 post infection): 100 percentage of control | HIV-1-induced syncytium formation in CEM cells (HIV-1; single drug 0.04 μg/ml, day 21 post infection): 100 percentage of control | HIV-1-induced syncytium formation in CEM cells (HIV-1; single drug 0.04 μg/ml, day 25 post infection): 100 percentage of control | HIV-1-induced syncytium formation in CEM cells (HIV-1; single drug 0.04 μg/ml, day 28 post infection): 100 percentage of control | HIV-1-induced syncytium formation in CEM cells (HIV-1; single drug 0.04 μg/ml, day 32 post infection): 100 percentage of control | HIV-1-induced syncytium formation in CEM cells (HIV-1; single drug 0.04 μg/ml, day 35 post infection): 100 percentage of control | HIV-1-induced syncytium formation in CEM cells (HIV-1; single drug 0.04 μg/ml, day 39 post infection): 100 percentage of control | HIV-1-induced syncytium formation in CEM cells (HIV-1; single drug 0.04 μg/ml, day 42 post infection): 100 percentage of control | HIV-1-induced syncytium formation in CEM cells (HIV-1; single drug 0.04 μg/ml, day 46 post infection): 100 percentage of control | HIV-1-induced syncytium formation in CEM cells (HIV-1; single drug 0.04 μg/ml, day 49 post infection): 100 percentage of control | HIV-1-induced syncytium formation in CEM cells (HIV-1; single drug 0.04 μg/ml, day 53 post infection): 100 percentage of control | HIV-1-induced syncytium formation in CEM cells (HIV-1; single drug 0.04 μg/ml, day 56 post infection): 100 percentage of control | HIV-1-induced syncytium formation in CEM cells (HIV-1; single drug 0.04 μg/ml, day 60 post infection): 100 percentage of control | HIV-1-induced syncytium formation in CEM cells (HIV-1; single drug 0.04 μg/ml, day 64 post infection): 100 percentage of control | HIV-1-induced syncytium formation in CEM cells (HIV-1; single drug 0.04 μg/ml, day 67 post infection): 100 percentage of control | HIV-1-induced syncytium formation in CEM cells (HIV-1; single drug 0.04 μg/ml, day 71 post infection): 100 percentage of control | HIV-1-induced syncytium formation in CEM cells (HIV-1; single drug 0.04 μg/ml, day 74 post infection): 100 percentage of control | HIV-1-induced syncytium formation in CEM cells (HIV-1; single drug 0.04 μg/ml, day 77 post infection): 100 percentage of control | HIV-1-induced syncytium formation in CEM cells (HIV-1; single drug 0.10 μg/ml, day 4 post infection): 0 percentage of control | HIV-1-induced syncytium formation in CEM cells (HIV-1; single drug 0.10 μg/ml, day 7 post infection): 0 percentage of control | HIV-1-induced syncytium formation in CEM cells (HIV-1; single drug 0.10 μg/ml, day 11 post infection): 0 percentage of control | HIV-1-induced syncytium formation in CEM cells (HIV-1; single drug 0.10 μg/ml, day 14 post infection): 12.5 percentage of control | HIV-1-induced syncytium formation in CEM cells (HIV-1; single drug 0.10 μg/ml, day 18 post infection): 75 percentage of control | HIV-1-induced syncytium formation in CEM cells (HIV-1; single drug 0.10 μg/ml, day 21 post infection): 100 percentage of control | HIV-1-induced syncytium formation in CEM cells (HIV-1; single drug 0.10 μg/ml, day 25 post infection): 100 percentage of control | HIV-1-induced syncytium formation in CEM cells (HIV-1; single drug 0.10 μg/ml, day 28 post infection): 100 percentage of control | HIV-1-induced syncytium formation in CEM cells (HIV-1; single drug 0.10 μg/ml, day 32 post infection): 100 percentage of control | HIV-1-induced syncytium formation in CEM cells (HIV-1; single drug 0.10 μg/ml, day 35 post infection): 100 percentage of control | HIV-1-induced syncytium formation in CEM cells (HIV-1; single drug 0.10 μg/ml, day 39 post infection): 100 percentage of control | HIV-1-induced syncytium formation in CEM cells (HIV-1; single drug 0.10 μg/ml, day 42 post infection): 100 percentage of control | HIV-1-induced syncytium formation in CEM cells (HIV-1; single drug 0.10 μg/ml, day 46 post infection): 100 percentage of control | HIV-1-induced syncytium formation in CEM cells (HIV-1; single drug 0.10 μg/ml, day 49 post infection): 100 percentage of control | HIV-1-induced syncytium formation in CEM cells (HIV-1; single drug 0.10 μg/ml, day 53 post infection): 100 percentage of control | HIV-1-induced syncytium formation in CEM cells (HIV-1; single drug 0.10 μg/ml, day 56 post infection): 100 percentage of control | HIV-1-induced syncytium formation in CEM cells (HIV-1; single drug 0.10 μg/ml, day 60 post infection): 100 percentage of control | HIV-1-induced syncytium formation in CEM cells (HIV-1; single drug 0.10 μg/ml, day 64 post infection): 100 percentage of control | HIV-1-induced syncytium formation in CEM cells (HIV-1; single drug 0.10 μg/ml, day 67 post infection): 100 percentage of control | HIV-1-induced syncytium formation in CEM cells (HIV-1; single drug 0.10 μg/ml, day 71 post infection): 100 percentage of control | HIV-1-induced syncytium formation in CEM cells (HIV-1; single drug 0.10 μg/ml, day 74 post infection): 100 percentage of control | HIV-1-induced syncytium formation in CEM cells (HIV-1; single drug 0.10 μg/ml, day 77 post infection): 100 percentage of control | HIV-1-induced syncytium formation in CEM cells (HIV-1; single drug 0.25 μg/ml, day 4 post infection): 0 percentage of control | HIV-1-induced syncytium formation in CEM cells (HIV-1; single drug 0.25 μg/ml, day 7 post infection): 0 percentage of control | HIV-1-induced syncytium formation in CEM cells (HIV-1; single drug 0.25 μg/ml, day 11 post infection): 0 percentage of control | HIV-1-induced syncytium formation in CEM cells (HIV-1; single drug 0.25 μg/ml, day 14 post infection): 6.25 percentage of control | HIV-1-induced syncytium formation in CEM cells (HIV-1; single drug 0.25 μg/ml, day 18 post infection): 50 percentage of control | HIV-1-induced syncytium formation in CEM cells (HIV-1; single drug 0.25 μg/ml, day 21 post infection): 100 percentage of control | HIV-1-induced syncytium formation in CEM cells (HIV-1; single drug 0.25 μg/ml, day 25 post infection): 100 percentage of control | HIV-1-induced syncytium formation in CEM cells (HIV-1; single drug 0.25 μg/ml, day 28 post infection): 100 percentage of control | HIV-1-induced syncytium formation in CEM cells (HIV-1; single drug 0.25 μg/ml, day 32 post infection): 100 percentage of control | HIV-1-induced syncytium formation in CEM cells (HIV-1; single drug 0.25 μg/ml, day 35 post infection): 100 percentage of control | HIV-1-induced syncytium formation in CEM cells (HIV-1; single drug 0.25 μg/ml, day 39 post infection): 100 percentage of control | HIV-1-induced syncytium formation in CEM cells (HIV-1; single drug 0.25 μg/ml, day 42 post infection): 100 percentage of control | HIV-1-induced syncytium formation in CEM cells (HIV-1; single drug 0.25 μg/ml, day 46 post infection): 100 percentage of control | HIV-1-induced syncytium formation in CEM cells (HIV-1; single drug 0.25 μg/ml, day 49 post infection): 100 percentage of control | HIV-1-induced syncytium formation in CEM cells (HIV-1; single drug 0.25 μg/ml, day 53 post infection): 100 percentage of control | HIV-1-induced syncytium formation in CEM cells (HIV-1; single drug 0.25 μg/ml, day 56 post infection): 100 percentage of control | HIV-1-induced syncytium formation in CEM cells (HIV-1; single drug 0.25 μg/ml, day 60 post infection): 100 percentage of control | HIV-1-induced syncytium formation in CEM cells (HIV-1; single drug 0.25 μg/ml, day 64 post infection): 100 percentage of control | HIV-1-induced syncytium formation in CEM cells (HIV-1; single drug 0.25 μg/ml, day 67 post infection): 100 percentage of control | HIV-1-induced syncytium formation in CEM cells (HIV-1; single drug 0.25 μg/ml, day 71 post infection): 100 percentage of control | HIV-1-induced syncytium formation in CEM cells (HIV-1; single drug 0.25 μg/ml, day 74 post infection): 100 percentage of control | HIV-1-induced syncytium formation in CEM cells (HIV-1; single drug 0.25 μg/ml, day 77 post infection): 100 percentage of control | virus breakthrough delayed till day (HIV-1; single drug, higher concentrations): 14 days
